For 18 molecules, IC50 results are on record in US8063225B2, “Tricyclic compound derivatives useful in the treatment of neoplastic diseases, inflammatory disorders and immunomodulatory disorders” (Chembridge Corporation, priority 2006, dated 2011).

One assay has as its target T1, Alk (Homo sapiens, UniProt Q9UM73).
T1 construct: 6×His- or GST-tagged kinase domain fragments of the corresponding RTKs expressed in baculovirus system; host or cells: baculovirus system
The experiment in a line: Tyrosine kinase assay (Kinase-Glo or AlphaScreen), Alk. The conditions noted are these: biochemical tyrosine kinase assay. The essentials: (§1)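 Baculovirus-expressed His- or GST-tagged kinase domains with poly(Glu-Tyr) substrate, 10 μM ATP, pH 7.5 Tris with MgCl2/MnCl2. Kinase-Glo: 60 min at 37 °C, residual ATP by luminescence; AlphaScreen: 30 min at RT, then anti-phosphotyrosine beads 60 min. Eight concentrations, 1 nM to 20 μM; IC50 by nonlinear regression.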
On the technique in general: In Kinase-Glo more light means more ATP remaining.

A further assay has as its target T2, IGF1R tyrosine kinase (Homo sapiens, UniProt P08069).
T2 construct: 6×His- or GST-tagged kinase domain fragments of the corresponding RTKs expressed in baculovirus system; host or cells: baculovirus system
The experiment in a line: IGF1R tyrosine kinase assay (Kinase-Glo ATP depletion or PT66/PT100 AlphaScreen). To be noted: biochemical tyrosine kinase assay. Put shortly: as §1

A further assay concerns Ba/F3. The experiment in a line: Cell proliferation inhibition, Cell Titer-Glo, Ba/F3. It counts as cell-based. The conditions noted are these: Mus musculus, BaF3; cell proliferation assay, Ba/F3 cells. The essentials: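 Ba/F3 cells were seeded at 2500-5000 cells per well in white, clear-bottomed 384-well culture plates and exposed to serial dilutions of test compounds for 3 days. Cell Titer-Glo Luminescent Cell Viability Assay (Promega) reagent, which measures total ATP as an indicator of metabolic activity, was added. Luminescence was read on a multiwell plate reader to derive IC50 values for inhibition of proliferation.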
(In ATP-based viability assays light output follows the ATP content of the culture.)

A further assay relates to K562. The assay is described as follows: Cell proliferation inhibition, Cell Titer-Glo, K562. It is filed as cell-based. To be noted: Homo sapiens; cell proliferation assay, K562 cells. The essentials:
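K562 cells were seeded at 2500-5000 cells per well in white, clear-bottomed 384-well culture plates and treated with dilutions of test compounds for typically 3 days. Viable cells were quantified with the Cell Titer-Glo Luminescent Cell Viability Assay (Promega), which measures total ATP, read on a luminescence plate reader to derive IC50 values for proliferation inhibition.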

The next assay relates to Karpas-299. The experiment in a line: Cell proliferation inhibition, Cell Titer-Glo, Karpas-299. It counts as cell-based. The conditions noted are these: Homo sapiens; cell proliferation assay, Karpas-299 cells. Put shortly:
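Karpas 299 cells were seeded into white, clear-bottomed 384-well culture plates at 2500-5000 cells per well and exposed to serial dilutions of test compounds for about 3 days. Viable cell numbers were then measured with the Cell Titer-Glo Luminescent Cell Viability Assay (Promega), which detects total ATP, and IC50 values for proliferation inhibition were derived.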

For another assay, the target named is T3, Jak2 (Homo sapiens, UniProt O60674).
T3 construct: 6×His- or GST-tagged kinase domain fragments of the corresponding RTKs expressed in baculovirus system; host or cells: baculovirus system
T3 sequence (O60674 849-1124 limits assumed, species assumed): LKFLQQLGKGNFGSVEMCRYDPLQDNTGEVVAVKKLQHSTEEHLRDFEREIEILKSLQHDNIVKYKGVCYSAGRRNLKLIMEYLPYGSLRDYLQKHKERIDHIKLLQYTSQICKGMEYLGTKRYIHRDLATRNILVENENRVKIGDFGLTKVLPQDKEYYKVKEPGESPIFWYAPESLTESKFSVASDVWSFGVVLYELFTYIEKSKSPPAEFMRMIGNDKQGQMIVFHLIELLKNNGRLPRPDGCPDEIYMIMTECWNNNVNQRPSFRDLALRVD
The experiment in a line: Tyrosine kinase assay (Kinase-Glo or AlphaScreen), Jak2. The conditions noted are these: biochemical tyrosine kinase assay. The essentials:
as §1

In a further assay the target is T4, InsR (Homo sapiens, UniProt P06213).
T4 construct: 6×His- or GST-tagged kinase domain fragments of the corresponding RTKs expressed in baculovirus system; host or cells: baculovirus system
T4 sequence (P06213 1023-1298 limits assumed, species assumed): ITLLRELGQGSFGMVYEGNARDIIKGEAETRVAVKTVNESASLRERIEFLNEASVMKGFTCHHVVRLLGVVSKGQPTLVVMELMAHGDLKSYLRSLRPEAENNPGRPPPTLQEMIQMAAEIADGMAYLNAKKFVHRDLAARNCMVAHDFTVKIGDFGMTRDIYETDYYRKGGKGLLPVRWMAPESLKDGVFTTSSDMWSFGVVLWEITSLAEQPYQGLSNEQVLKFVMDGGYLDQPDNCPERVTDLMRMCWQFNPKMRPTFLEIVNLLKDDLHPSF
The assay is described as follows: Tyrosine kinase assay (Kinase-Glo or AlphaScreen), InsR. The conditions noted are these: biochemical tyrosine kinase assay. Put shortly: as §1

T1 sequence (Q9UM73 1116-1392 limits assumed, species assumed): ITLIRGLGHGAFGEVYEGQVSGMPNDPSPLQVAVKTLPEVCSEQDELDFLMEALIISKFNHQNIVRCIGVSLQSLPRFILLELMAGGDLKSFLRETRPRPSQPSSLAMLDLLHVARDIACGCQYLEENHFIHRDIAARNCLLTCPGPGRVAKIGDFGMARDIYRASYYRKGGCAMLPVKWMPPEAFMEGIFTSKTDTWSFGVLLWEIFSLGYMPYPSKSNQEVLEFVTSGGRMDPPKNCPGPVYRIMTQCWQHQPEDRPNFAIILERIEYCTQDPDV
T2 sequence (P08069 999-1274 limits assumed): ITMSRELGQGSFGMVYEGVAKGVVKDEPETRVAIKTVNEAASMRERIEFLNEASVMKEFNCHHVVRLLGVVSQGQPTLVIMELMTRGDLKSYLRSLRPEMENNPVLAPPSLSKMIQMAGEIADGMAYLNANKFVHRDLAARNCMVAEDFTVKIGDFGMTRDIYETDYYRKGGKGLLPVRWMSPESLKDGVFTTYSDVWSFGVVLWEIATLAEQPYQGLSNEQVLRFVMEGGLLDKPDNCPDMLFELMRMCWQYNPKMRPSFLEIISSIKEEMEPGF

Usually IC50 stands for the midpoint of a concentration-inhibition curve. Low values mean higher potency, high ones lower potency. In the case of `COc1cc(F)ccc1OC[C@@H](O)CNc1ccnc(O)c1-c1nc2cc3c(cc2[nH]1)C(=O)N(C1CCN(C)CC1)C3=O` [compound 58], the IC50 is 0.5 to 5 µM against Alk; 500 to 5000 nM at IGF1R tyrosine kinase; 5 to 15 µM in the assay with Ba/F3; 5 to 15 µM in the assay with K562; 5 to 15 µM in the assay on Karpas-299; 5 to 15 µM against Jak2. Further, the half-inhibitory concentration (IC50) against InsR lay within 0.5 to 5 µM.

On to `Cc1c(Cl)cccc1OC[C@H](O)CNc1cc[nH]c(=O)c1-c1nc2cc3c(cc2[nH]1)C(=O)N(CC1CCN(CCO)CC1)C3=O` [compound 119], for which the 50% inhibitory concentration (IC50) against Alk is 0.5 to 5 µM; on IGF1R tyrosine kinase, less than 500 nM; with Ba/F3, greater than 15 µM; in the assay with K562, greater than 15 µM; in the assay on Karpas-299, greater than 15 µM; on Jak2 it was 0.5 to 5 µM. In addition, the IC50 on InsR is less than 0.5 µM.

`CC(Nc1cc[nH]c(=O)c1-c1nc2cc3c(cc2[nH]1)C(=O)N(C1CCN(C)CC1)C3=O)C1COc2ccccc2O1` (stereo not drawn) [compound 40]: the IC50 at Alk was 5 to 15 µM; on IGF1R tyrosine kinase, 5000 to 15000 nM; in the assay on Ba/F3 it was 0.5 to 5 µM; in the assay with K562 it was 5 to 15 µM; in the assay with Karpas-299 it was 5 to 15 µM; against Jak2, 0.5 to 5 µM. For the same molecule, the IC50 against InsR lay in the range of 5 to 15 µM.

In the case of `Cc1ccc(Cl)cc1OC[C@@H](O)CNc1ccnc(O)c1-c1nc2cc3c(cc2[nH]1)C(=O)N(C1CCN(C)CC1)C3=O` [compound 56], the half-inhibitory concentration (IC50) fell in the range of 0.5 to 5 µM against Alk; 500 to 5000 nM at IGF1R tyrosine kinase; 0.5 to 5 µM in the assay with Ba/F3; 0.5 to 5 µM with K562; 0.5 to 5 µM with Karpas-299; 0.5 to 5 µM at Jak2. This molecule returned a half-inhibitory concentration (IC50) on InsR of 0.5 to 5 µM.

Turning to `COc1ccc(OC[C@H](O)CNc2cc[nH]c(=O)c2-c2nc3c(C)c4c(cc3[nH]2)C(=O)N(C2CCN(C)CC2)C4=O)c(C)c1Cl` [compound 138], the IC50 against Alk was 0.5 to 5 µM; at IGF1R tyrosine kinase it was less than 500 nM; in the assay on Ba/F3 it was 5 to 15 µM; in the assay on K562, greater than 15 µM; with Karpas-299 it was 0.5 to 5 µM; at Jak2, 0.5 to 5 µM. The IC50 at InsR is less than 0.5 µM.

Regarding `CN1CCC(N2C(=O)c3cc4nc(-c5c(N[C@@H](CO)Cc6ccccc6)cc[nH]c5=O)[nH]c4cc3C2=O)CC1` [compound 5], the IC50 was less than 0.5 µM at Alk; 500 to 5000 nM against IGF1R tyrosine kinase; 0.5 to 5 µM with Ba/F3; 0.5 to 5 µM with K562; 0.5 to 5 µM in the assay with Karpas-299; 0.5 to 5 µM against Jak2. At InsR, the half-maximal inhibitory concentration (IC50) is 0.5 to 5 µM.

Take `Cc1ccc(OC[C@H](O)CNc2ccnc(O)c2-c2nc3cc4c(cc3[nH]2)C(=O)N([C@@H]2CCCN(C)C2)C4=O)c(C)c1` [compound 102]: the IC50 against Alk is greater than 15 µM; against IGF1R tyrosine kinase, less than 500 nM; in the assay on Ba/F3, greater than 15 µM; with K562 it was greater than 15 µM; in the assay with Karpas-299, 5 to 15 µM; against Jak2 it was greater than 15 µM. For the same molecule, on InsR, the IC50 was in the range of 5 to 15 µM.

For the molecule `CC(C)CNCC(O)CNc1ccnc(O)c1-c1nc2cc3c(cc2[nH]1)C(=O)N(C1CCN(C)CC1)C3=O` (stereo not drawn) [compound 66], the IC50 at Alk is greater than 15 µM; on IGF1R tyrosine kinase, greater than 15000 nM; in the assay with Ba/F3, greater than 15 µM; with K562 it was greater than 15 µM; in the assay with Karpas-299, greater than 15 µM; at Jak2 it was greater than 15 µM. The molecule further gave a half-inhibitory concentration (IC50) at InsR greater than 15 µM.

On to `CN1CCC(N2C(=O)c3cc4nc(-c5c(NCC(O)COc6ccc(Cl)cc6)cc[nH]c5=O)[nH]c4cc3C2=O)CC1` (stereo not drawn) [compound 39], for which the concentration for half-maximal inhibition (IC50) at Alk was 0.5 to 5 µM; against IGF1R tyrosine kinase, 500 to 5000 nM; with Ba/F3, 0.5 to 5 µM; in the assay on K562, 0.5 to 5 µM; with Karpas-299 it was 0.5 to 5 µM; against Jak2, 0.5 to 5 µM. Also, the IC50 against InsR fell in the range of 0.5 to 5 µM.

As to `CN1CCC(N2C(=O)c3cc4nc(-c5c(NC[C@@H](O)COc6cccc7[nH]ccc67)ccnc5O)[nH]c4cc3C2=O)CC1` [compound 101], the half-maximal inhibitory concentration (IC50) is less than 0.5 µM against Alk; less than 500 nM against IGF1R tyrosine kinase; greater than 15 µM in the assay with Ba/F3; greater than 15 µM with K562; greater than 15 µM in the assay on Karpas-299; 0.5 to 5 µM at Jak2. Also, the IC50 against InsR was less than 0.5 µM.

For the molecule `Cc1cccc(OCC(O)CNc2cc[nH]c(=O)c2-c2nc3cc4c(cc3[nH]2)C(=O)N(C2CCN(C)CC2)C4=O)c1` (stereo not drawn) [compound 105], the IC50 is 5 to 15 µM on Alk; 500 to 5000 nM at IGF1R tyrosine kinase; greater than 15 µM with Ba/F3; 5 to 15 µM in the assay on K562; greater than 15 µM in the assay on Karpas-299; 0.5 to 5 µM against Jak2. The same molecule had a concentration for half-maximal inhibition (IC50) at InsR of 0.5 to 5 µM.

Turning to `Cc1ccc(OC[C@H](O)CNc2ccnc(O)c2-c2nc3cc4c(cc3[nH]2)C(=O)N(C2CCN(C)CC2)C4=O)cn1` [compound 69], the IC50 against Alk is 5 to 15 µM; against IGF1R tyrosine kinase, 500 to 5000 nM; in the assay on Ba/F3 it was greater than 15 µM; in the assay on K562, greater than 15 µM; in the assay on Karpas-299 it was greater than 15 µM; against Jak2, 0.5 to 5 µM. In addition, the IC50 on InsR fell in the range of 0.5 to 5 µM.

Consider `CN(C)CC(C)(C)CN1C(=O)c2cc3nc(-c4c(NC[C@@H](O)c5cccc(Cl)c5)ccnc4O)[nH]c3cc2C1=O` [compound 60], for which the 50% inhibitory concentration (IC50) was 5 to 15 µM against Alk; 500 to 5000 nM at IGF1R tyrosine kinase; greater than 15 µM in the assay with Ba/F3; greater than 15 µM in the assay on K562; greater than 15 µM in the assay with Karpas-299; 0.5 to 5 µM at Jak2. Moreover, at InsR, the concentration for half-maximal inhibition (IC50) lay within 0.5 to 5 µM.

Take `O=C1c2cc3nc(-c4c(NC[C@@H](O)c5cccc(Cl)c5)ccnc4O)[nH]c3cc2C(=O)N1CCN1CCOCC1` [compound 8]: the concentration for half-maximal inhibition (IC50) against Alk is 0.5 to 5 µM; on IGF1R tyrosine kinase, 500 to 5000 nM; in the assay with Ba/F3, greater than 15 µM; in the assay with K562 it was greater than 15 µM; in the assay on Karpas-299, greater than 15 µM; against Jak2 it was 0.5 to 5 µM. This molecule registered an IC50 on InsR of 0.5 to 5 µM.

With `Cc1ccc(OC[C@H](O)CNc2ccnc(O)c2-c2nc3cc4c(cc3[nH]2)C(=O)N(C2CCN(C)CC2)C4=O)c2c1CCC2` [compound 85], the IC50 against Alk was 0.5 to 5 µM; against IGF1R tyrosine kinase it was less than 500 nM; with Ba/F3 it was 0.5 to 5 µM; with K562, 0.5 to 5 µM; with Karpas-299, 0.5 to 5 µM; on Jak2, 0.5 to 5 µM. In addition, on InsR, the 50% inhibitory concentration (IC50) is less than 0.5 µM.

`CCN(CC)C(=O)c1ccc(OC[C@H](O)CNc2ccnc(O)c2-c2nc3cc4c(cc3[nH]2)C(=O)N(C2CCN(C)CC2)C4=O)c(OC)c1` [compound 51]: the IC50 against Alk is greater than 15 µM; against IGF1R tyrosine kinase, greater than 15000 nM; in the assay on Ba/F3, greater than 15 µM; in the assay on K562, greater than 15 µM; in the assay with Karpas-299 it was greater than 15 µM; on Jak2, greater than 15 µM. This molecule returned a concentration for half-maximal inhibition (IC50) against InsR greater than 15 µM.

On to `Cc1ccc(OCC(O)CNc2ccnc(O)c2-c2nc3cc4c(cc3[nH]2)C(=O)N(CCCn2cccn2)C4=O)c(C)c1` (stereo not drawn) [compound 63], for which the IC50 against Alk is 0.5 to 5 µM; against IGF1R tyrosine kinase it was greater than 15000 nM; with Ba/F3, greater than 15 µM; in the assay with K562, greater than 15 µM; in the assay with Karpas-299 it was greater than 15 µM; on Jak2, greater than 15 µM. At InsR, this molecule came in with a half-maximal inhibitory concentration (IC50) greater than 15 µM.

In the case of `Cc1ncccc1OC[C@H](O)CNc1ccnc(O)c1-c1nc2cc3c(cc2[nH]1)C(=O)N(C1CCN(C)CC1)C3=O` [compound 71], the IC50 is 5 to 15 µM against Alk; 500 to 5000 nM against IGF1R tyrosine kinase; greater than 15 µM in the assay on Ba/F3; greater than 15 µM with K562; greater than 15 µM with Karpas-299; 5 to 15 µM at Jak2. In addition, the IC50 on InsR lay within 0.5 to 5 µM.
